Laboratory results published in PMC3244823 (2011).

Target: Pin1 (murine embryonic fibroblasts) (Mus musculus, UniProt Q9QUR7)
Assay: EGCG-Sepharose pull-down from MEF lysates
Format: cell-based

Chain of Pin1 (murine embryonic fibroblasts) (Q9QUR7 whole entry): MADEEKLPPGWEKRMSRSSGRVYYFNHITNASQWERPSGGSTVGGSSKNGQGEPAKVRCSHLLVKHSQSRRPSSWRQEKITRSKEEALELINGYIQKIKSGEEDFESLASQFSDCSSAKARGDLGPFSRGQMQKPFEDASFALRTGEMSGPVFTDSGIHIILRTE

**Q.** `O=C(O[C@@H]1Cc2c(O)cc(O)cc2O[C@@H]1c1cc(O)c(O)c(O)c1)c1cc(O)c(O)c(O)c1` [EGCG, epigallocatechin-3-gallate] was tested. Which Ki did it give?
**A.** 45 µM
